Data from patent publication US20240246902A1, “PRODRUGS OF 6-DIAZO-5-OXO-L-NORLEUCINE” (THE JOHNS HOPKINS UNIVERSITY, priority 2021, published 2024).

How the values were obtained:
[1] = Metabolic stability in swine jejunum (gut) tissue homogenate; type: in vitro ADME; conditions: prodrug 20 μM, 37° C.
Protocol: (§1) The representative Compounds of the Disclosure were screened for metabolic stability in swine jejunum/liver tissue homogenates, following our previously reported methods (Zimmermann et al., J. Med. Chem., 61(9):3918-29 (2018); Tenora et al., J. Med. Chem., 62(7):3524-38 (2019)). In brief, freshly collected tissues were homogenized by probe sonication in 9× volume of 0.1 M potassium phosphate buffer over ice. Post homogenization, prodrugs were spiked at a concentration of 20 μM (in triplicate) and incubated in an orbital shaker at 37° C. for 60 min. Final concentration of DMSO in the incubations was 0.2% v/v. At each time point (0, 30, 60 min), 100 μL of sample was precipitated with 300 μL of methanol containing internal standard (IS; losartan: 0.5 μM). […] After centrifugation, 50 μL of supernatant was diluted with 50 μL of water, vortexed and submitted for analysis. Prodrug disappearance over time was measured using liquid chromatography tandem mass spectrometry (LC-MS/MS).
(§2) The processed supernatants were analyzed on a Thermo Scientific Vanquish UPLC system (equipped with Vanquish autosampler, pumps, and column compartment) hyphenated to TSQ Altis mass spectrometer (Thermo Fisher Scientific Inc., Waltham MA). […] The autosampler was operated at 4° C. […] Peak area ratios obtained from peak area counts of analyte and internal standard were used to measure the disappearance of prodrugs.

[2] = Metabolic stability in swine liver tissue homogenate; type: in vitro ADME; conditions: prodrug 20 μM, 37° C.
Protocol: as §1, §2

SMILES	Gut Stability (% remaining at 60 min) [1]	Liver stability (% remaining at 60 min) [2]
CC(C)OC(=O)[C@H](CCC(=O)C=[N+]=[N-])NC(=O)[C@H](Cc1c[nH]c2ccccc12)NC(=O)CN(C)C [Compound 8f, Isopropyl (S)-6-diazo-2-((S)-2-(2-(dimethylamino)acetamido)-3-(1H-indol-3-yl)propanamido)-5-oxohexanoate]	2 ± 0%	2 ± 0%
CC(C)OC(=O)[C@H](CCC(=O)C=[N+]=[N-])NC(=O)[C@H](Cc1c[nH]c2ccccc12)NC(=O)CN1CCOCC1 [Compound 8i, Isopropyl (S)-2-((S)-3-(1H-indol-3-yl)-2-(2-morpholinoacetamido)propanamido)-6-diazo-5-oxohexanoate]	0 ± 0%	0 ± 0%
CCCC(=O)N[C@@H](Cc1c[nH]c2ccccc12)C(=O)N[C@@H](CCC(=O)C=[N+]=[N-])C(=O)OC(C)C [Compound 8a, Isopropyl (S)-2-((S)-2-butyramido-3-(1H-indol-3-yl)propanamido)-6-diazo-5-oxohexanoate]	12 ± 1%	5 ± 1%
CC(C)OC(=O)[C@H](CCC(=O)C=[N+]=[N-])NC(=O)[C@H](Cc1c[nH]c2ccccc12)NC(=O)c1cccnc1 [Compound 8l, Isopropyl (S)-2-((S)-3-(1H-indol-3-yl)-2-(nicotinamido)propanamido)-6-diazo-5-oxohexanoate]	2 ± 0%	0 ± 0%
CC(C)OC(=O)[C@H](CCC(=O)C=[N+]=[N-])NC(=O)[C@H](Cc1c[nH]c2ccccc12)NC(=O)C(C)(C)C [Compound 8d, Isopropyl (S)-2-((S)-3-(1H-indol-3-yl)-2-pivalamidopropanamido)-6-diazo-5-oxohexanoate]	9 ± 1%	2 ± 0%
CC(C)OC(=O)[C@H](CCC(=O)C=[N+]=[N-])NC(=O)[C@H](Cc1c[nH]c2ccccc12)NC(=O)C(C)C [Compound 8c, Isopropyl (S)-2-((S)-3-(1H-indol-3-yl)-2-isobutyramidopropanamido)-6-diazo-5-oxohexanoate]	13 ± 7%	13 ± 0%
CC(C)CC(=O)N[C@@H](Cc1c[nH]c2ccccc12)C(=O)N[C@@H](CCC(=O)C=[N+]=[N-])C(=O)OC(C)C [Compound 8b, Isopropyl (S)-2-((S)-3-(1H-indol-3-yl)-2-(3-methylbutanamido)propanamido)-6-diazo-5-oxohexanoate]	6 ± 1%	1 ± 0%
CC(C)OC(=O)[C@H](CCC(=O)C=[N+]=[N-])NC(=O)[C@H](Cc1c[nH]c2ccccc12)NC(=O)c1ccncc1 [Compound 8m, Isopropyl (S)-2-((S)-3-(1H-indol-3-yl)-2-(isonicotinamido)propanamido)-6-diazo-5-oxohexanoate]	–	0 ± 0%
C=CCOC(=O)[C@H](CCC(=O)C=[N+]=[N-])NC(C)=O [Compound 5l, Allyl (S)-2-acetamido-6-diazo-5-oxohexanoate]	–	12 ± 0%
CC(C)OC(=O)[C@H](CCC(=O)C=[N+]=[N-])NC(=O)[C@H](Cc1c[nH]c2ccccc12)NC(=O)CN1CCN(C)CC1 [Compound 8j, Isopropyl (S)-2-((S)-3-(1H-indol-3-yl)-2-(2-(4-methylpiperazin-1-yl)acetamido)propanamido)-6-diazo-5-oxohexanoate]	–	2 ± 0%
Cn1cc(C[C@H](NC(=O)C(Cl)Cl)C(=O)N[C@@H](CCC(=O)C=[N+]=[N-])C(=O)OC(C)(C)C)c2ccccc21 [Compound 12h, tert-Butyl (S)-6-diazo-2-((S)-2-(2,2-dichloroacetamido)-3-(1-methyl-1H-indol-3-yl)propanamido)-5-oxohexanoate]	–	50 ± 3%
CCN(CC)CC(=O)N[C@@H](Cc1c[nH]c2ccccc12)C(=O)N[C@@H](CCC(=O)C=[N+]=[N-])C(=O)OC(C)C [Compound 8g, Isopropyl (S)-6-diazo-2-((S)-2-(2-(diethylamino)acetamido)-3-(1H-indol-3-yl)propanamido)-5-oxohexanoate]	1 ± 0%	1 ± 0%
CC(C)OC(=O)[C@H](CCC(=O)C=[N+]=[N-])NC(=O)C(Cl)Cl [Compound 5e, Isopropyl (S)-6-diazo-2-(2,2-dichloroacetamido)-5-oxohexanoate]	–	0 ± 0%

Next, values leading:

Gut Stability (% remaining at 60 min) [1]	Liver stability (% remaining at 60 min) [2]	SMILES
89 ± 2%	49 ± 0%	CN(C)CC(=O)N[C@@H](Cc1cn(C)c2ccccc12)C(=O)N[C@@H](CCC(=O)C=[N+]=[N-])C(N)=O [Compound 31f, (S)-6-Diazo-2-((S)-2-(2-(dimethylamino)acetamido)-3-(1-methyl-1H-indol-3-yl)propanamido)-5-oxohexanamide]
–	90 ± 1%	CC(C)C[C@H](NC(=O)CN(C)C)C(=O)N[C@@H](CCC(=O)C=[N+]=[N-])C(N)=O [Compound 31d, (S)-6-Diazo-2-((S)-2-(2-(dimethylamino)acetamido)-4-methylpentanamido)-5-oxohexanamide]
93 ± 1%	105 ± 2%	CC(=O)N[C@@H](Cc1cncn1C)C(=O)N[C@@H](CCC(=O)C=[N+]=[N-])C(=O)OC(C)(C)C [Compound 18a, tert-Butyl (S)-2-((S)-2-acetamido-3-(1-methyl-1H-imidazol-5-yl)propanamido)-6-diazo-5-oxohexanoate]
–	39 ± 0%	CN(C)CC(=O)N[C@@H](Cc1ccccc1)C(=O)N[C@@H](CCC(=O)C=[N+]=[N-])C(N)=O [Compound 31e, (S)-6-Diazo-2-((S)-2-(2-(dimethylamino)acetamido)-3-phenylpropanamido)-5-oxohexanamide]
96 ± 0%	88 ± 1%	CC(=O)NCC(=O)N[C@@H](CCC(=O)C=[N+]=[N-])C(=O)OC(C)(C)C [Compound 14a, tert-Butyl (S)-2-(2-acetamidoacetamido)-6-diazo-5-oxohexanoate]
–	89 ± 4%	CN(C)CC(=O)NCC(=O)N[C@@H](CCC(=O)C=[N+]=[N-])C(N)=O [Compound 31c, (S)-6-Diazo-2-(2-(2-(dimethylamino)acetamido)acetamido)-5-oxohexanamide]
–	71 ± 0%	CN(C)[C@@H](Cc1ccccc1)C(=O)N[C@@H](CCC(=O)C=[N+]=[N-])C(=O)OC(C)(C)C [Compound 26a, tert-Butyl (S)-6-diazo-2-((S)-2-(dimethylamino)-3-phenylpropanamido)-5-oxohexanoate]
98 ± 2%	100 ± 3%	CN(C)CC(=O)N[C@@H](Cc1cncn1C)C(=O)N[C@@H](CCC(=O)C=[N+]=[N-])C(=O)OC(C)(C)C [Compound 18b, tert-Butyl (S)-6-diazo-2-((S)-2-(2-(dimethylamino)acetamido)-3-(1-methyl-1H-imidazol-5-yl)propanamido)-5-oxohexanoate]
–	78 ± 1%	CN(C)CC(=O)N[C@@H](CC(C)(C)C)C(=O)N[C@@H](CCC(=O)C=[N+]=[N-])C(=O)OC(C)(C)C [Compound 24a, tert-Butyl (S)-6-diazo-2-((S)-2-(2-(dimethylamino)acetamido)-4,4-dimethylpentanamido)-5-oxohexanoate]
